Data from ChEMBL document CHEMBL1125860 (J Med Chem, 1991).
Values belong to the compound of their own block, whether it stands above or below them. The source made the active and inactive calls. No cut-off for these calls is given here.

Assays:
Rattus norvegicus [1] = assay: In vivo inhibition of galactitol accumulation in sciatic nerves of rat at 10 mg/kg/day; format: functional; settings: Sciatic nerve
Rattus norvegicus [2] = assay: In vivo inhibition of galactitol accumulation in diaphragm of rat at 105 mg/kg/day; format: functional
Rattus norvegicus [3] = assay: In vivo inhibition of galactitol accumulation in sciatic nerves of rat at 105 mg/kg/day; Not significant; format: functional, organism-based; settings: Sciatic nerve
Rattus norvegicus [4] = assay: In vivo inhibition of galactitol accumulation in diaphragm of rat at 10 mg/kg/day; format: functional
[5] = target: Aldo-keto reductase family 1 member B1 (Bos taurus) (UniProt P16116); assay: In vitro % decrease of aldose reductase measured in isolated partially purified bovine lens preparations at 10e-7 M concentration
Rattus norvegicus [6] = assay: In vivo inhibition of galactitol accumulation in sciatic nerves of rat at 65 mg/kg/day; Not significant; format: functional, organism-based; settings: Sciatic nerve
Rattus norvegicus [7] = assay: In vivo inhibition of galactitol accumulation in diaphragm of rat at 65 mg/kg/day; format: functional
Rattus norvegicus [8] = assay: In vivo inhibition of galactitol accumulation in diaphragm of rat at 5 mg/kg/day; format: functional
Rattus norvegicus [9] = assay: In vivo inhibition of galactitol accumulation in sciatic nerves of rat at 5 mg/kg/day; Not significant; format: functional, organism-based; settings: Sciatic nerve
Rattus norvegicus [10] = assay: In vivo inhibition of galactitol accumulation in sciatic nerves of rat at 144 mg/kg/day; format: functional; settings: Sciatic nerve
Rattus norvegicus [11] = organism: Rattus norvegicus; assay: (§1) In vitro inhibition of sorbitol accumulation was measured in rat sciatic nerves incubated in the presence of 50 mM glucose at 10e-6 M concentration; format: functional, Sciatic nerve
Rattus norvegicus [12] = assay: In vivo inhibition of galactitol accumulation in diaphragm of rat at 144 mg/kg/day; format: functional
Rattus norvegicus [13] = organism: Rattus norvegicus; assay: (§2) In vitro inhibition of sorbitol accumulation was measured in rat sciatic nerves incubated in the presence of 50 mM glucose at 10e-5 M concentration; format: functional, Sciatic nerve
Rattus norvegicus [14] = organism: Rattus norvegicus; assay: as §2; format: functional; settings: Sciatic nerve
Rattus norvegicus [15] = organism: Rattus norvegicus; assay: % inhibition of aldose reductase was measured in rat serbital sciatic nerves incubated in the presence of 50 mM glucose at 10e-6 M concentration; format: functional, Sciatic nerve
Rattus norvegicus [16] = assay: Effective dose of aldose reductase was evaluated by measuring galactitol accumulation in sciatic nerves of rat at 5 mg/kg/day; format: functional; settings: Sciatic nerve
Rattus norvegicus [17] = assay: In vivo inhibition of galactitol accumulation in sciatic nerves of rat at 5 mg/kg/day; format: functional; settings: Sciatic nerve
[18] = target: T1, Aldo-keto reductase family 1 member B1 (Bos taurus, UniProt P16116); assay: In vitro Inhibition of aldose reductase was measured in isolated partially purified bovine lens preparations at 10e-7 M concentration
Rattus norvegicus [19] = organism: Rattus norvegicus; assay: as §1; format: functional; settings: Sciatic nerve
Rattus norvegicus [20] = assay: In vivo inhibition of galactitol accumulation in diaphragm of rat at 14 mg/kg/day; format: functional
Rattus norvegicus [21] = assay: In vivo inhibition of galactitol accumulation in diaphragm of rat at 27 mg/kg/day; format: functional
Rattus norvegicus [22] = assay: In vivo inhibition of galactitol accumulation in sciatic nerves of rat at 27 mg/kg/day; format: functional; settings: Sciatic nerve
Rattus norvegicus [23] = assay: In vivo inhibition of galactitol accumulation in sciatic nerves of rat at 14 mg/kg/day; format: functional; settings: Sciatic nerve
[24] = target: Aldo-keto reductase family 1 member B1 (Bos taurus) (UniProt P16116); assay: In vitro % decrease of aldose reductase was measured in isolated partially purified bovine lens preparations at 10e-7 M concentration; Not active
Rattus norvegicus [25] = assay: In vivo inhibition of galactitol accumulation in diaphragm of rat at 22 mg/kg/day; format: functional
Rattus norvegicus [26] = assay: In vivo inhibition of galactitol accumulation in diaphragm of rat at 11 mg/kg/day; format: functional
Rattus norvegicus [27] = assay: In vivo inhibition of galactitol accumulation in sciatic nerves of rat at 11 mg/kg/day; format: functional; settings: Sciatic nerve
Rattus norvegicus [28] = assay: In vivo inhibition of galactitol accumulation in sciatic nerves of rat at 22 mg/kg/day; format: functional; settings: Sciatic nerve
Rattus norvegicus [29] = organism: Rattus norvegicus; assay: Inhibition of aldose reductase activity was measured by measuring […] in the RBC of galactose fed rat.; format: functional
Rattus norvegicus [30] = organism: Rattus norvegicus; assay: Inhibition of galactitol accumulation in rat RBC incubated in presence of 50 mM glucose; format: functional, organism-based
Rattus norvegicus [31] = organism: Rattus norvegicus; assay: Inhibition of aldose reductase activity was measured by measuring […] in the sciatic nerves of galactose fed rat.; format: functional; settings: Sciatic nerve
Rattus norvegicus [32] = organism: Rattus norvegicus; assay: Inhibition of aldose reductase activity was measured by measuring sorbitor accumulation in the sciatic nerves of STZ diabetic rat.; format: functional; settings: Sciatic nerve
Rattus norvegicus [33] = organism: Rattus norvegicus; assay: Inhibition of galactitol accumulation in sciatic nerves of rat incubated in presence of 50 mM glucose.; format: functional, organism-based; settings: Sciatic nerve
[34] = target: T1, Aldo-keto reductase family 1 member B1; assay: Inhibition of aldose reductase activity was measured on partially purified bovine lens preparations incubated in presence of 50 mM glucose.
Rattus norvegicus [35] = organism: Rattus norvegicus; assay: Inhibition of galactitol accumulation in rat lens incubated in presence of 50 mM glucose; format: functional, organism-based; settings: Lens of camera-type eye
Rattus norvegicus [36] = assay: In vivo inhibition of galactitol accumulation in diaphragm of rat at 19 mg/kg/day; format: functional
Rattus norvegicus [37] = assay: In vivo inhibition of galactitol accumulation in sciatic nerves of rat at 19 mg/kg/day; format: functional; settings: Sciatic nerve
Rattus norvegicus [38] = assay: In vivo inhibition of galactitol accumulation in sciatic nerves of rat at 112 mg/kg/day; Not significant; format: functional, organism-based; settings: Sciatic nerve
Rattus norvegicus [39] = assay: % reduction of aldose reductase inhibition was evaluated by measuring galactitol accumulation in diaphragm of rat at 112 mg/kg/day; Not significant; format: functional, organism-based
Rattus norvegicus [40] = assay: In vivo inhibition of galactitol accumulation in diaphragm of rat at 4 mg/kg/day; format: functional
Rattus norvegicus [41] = assay: In vivo inhibition of galactitol accumulation in sciatic nerves of rat at 4 mg/kg/day; format: functional; settings: Sciatic nerve
Rattus norvegicus [42] = assay: Effective dose of aldose reductase was evaluated by measuring galactitol accumulation in sciatic nerves of rat at 4 mg/kg/day; format: functional; settings: Sciatic nerve

Structure (SMILES): O=C(O)Cc1nn(Cc2nc3cc(C(F)(F)F)ccc3s2)c(=O)c2ccccc12 [ZOPOLRESTAT]
inhibition in vivo at 10 mg/kg/day (Rattus norvegicus [1]): 70%
inhibition in vivo at 10 mg/kg/day (Rattus norvegicus [4]): 80%
inhibition in vivo at 5 mg/kg/day (Rattus norvegicus [8]): 88%
inhibition (Rattus norvegicus [9]): inactive
inhibition [5]: 89%

Structure (SMILES): COc1ccc2c(C(=O)N(C)CC(N)=O)ccc(F)c2c1C(F)(F)F
inhibition in vivo at 14 mg/kg/day (Rattus norvegicus [20]): 74%
inhibition in vivo at 27 mg/kg/day (Rattus norvegicus [21]): 31%
inhibition in vivo at 27 mg/kg/day (Rattus norvegicus [22]): 56%
inhibition in vivo at 14 mg/kg/day (Rattus norvegicus [23]): 72%
inhibition [24]: inactive

Structure (SMILES): COC(=O)CN(C)C(=O)c1c(F)ccc2c(C(F)(F)F)c(OC)ccc12
inhibition in vivo at 22 mg/kg/day (Rattus norvegicus [25]): 55%
inhibition in vivo at 27 mg/kg/day (Rattus norvegicus [21]): 48%
inhibition in vivo at 27 mg/kg/day (Rattus norvegicus [22]): 48%
inhibition in vivo at 11 mg/kg/day (Rattus norvegicus [26]): 34%
inhibition in vivo at 11 mg/kg/day (Rattus norvegicus [27]): 29%
inhibition [24]: inactive
inhibition in vivo at 22 mg/kg/day (Rattus norvegicus [28]): 80%

Structure (SMILES): COC(=O)N(CC(=O)O)C(=O)c1c(F)ccc2c(C(F)(F)F)c(OC)ccc12
inhibition in vivo at 10 mg/kg/day (Rattus norvegicus [1]): 61%
ED50 (Rattus norvegicus [29]): 3.5 mg/kg
Inhibition (Rattus norvegicus [11]): 36%
Inhibition (Rattus norvegicus [13]): 61%
inhibition in vivo at 10 mg/kg/day (Rattus norvegicus [4]): 62%
IC50 (Rattus norvegicus [30]): 19 nM
ED50 (Rattus norvegicus [31]): 4.8 mg/kg
inhibition in vivo at 5 mg/kg/day (Rattus norvegicus [17]): 50%
ED50 (Rattus norvegicus [32]): 4 mg/kg
inhibition in vivo at 5 mg/kg/day (Rattus norvegicus [8]): 52%
IC50 (Rattus norvegicus [33]): 2800 nM
IC50 [34]: 25 nM
inhibition [5]: 86%
IC50 (Rattus norvegicus [35]): 340 nM

Structure (SMILES): O=C1NC(=O)[C@@]2(CCOc3ccc(F)cc32)N1 [SORBINIL]
IC50 (Rattus norvegicus [14]): 2200 nM
inhibition in vivo at 4 mg/kg/day (Rattus norvegicus [40]): 69%
Inhibition (Rattus norvegicus [11]): 27%
Inhibition (Rattus norvegicus [13]): 96%
inhibition in vivo at 4 mg/kg/day (Rattus norvegicus [41]): 55%
IC50 (Rattus norvegicus [19]): 2200 nM
ED50 (Rattus norvegicus [42]): 4.2 mg/kg

Now from value to compound, other results behind:

inhibition [5]: 8%
Structure (SMILES): COc1c(C)cc2c(C(=S)N(C)CC(=O)O)cccc2c1Br
inhibition in vivo at 10 mg/kg/day (Rattus norvegicus [1]): 54%
inhibition in vivo at 105 mg/kg/day (Rattus norvegicus [2]): 34%
inhibition (Rattus norvegicus [3]): inactive
inhibition in vivo at 10 mg/kg/day (Rattus norvegicus [4]): 87%

inhibition [5]: 73%
Structure (SMILES): COc1ccc2c(C(=O)N(C)CC(=O)O)c(OCc3ccccc3)ccc2c1C(F)(F)F
inhibition (Rattus norvegicus [6]): inactive
inhibition in vivo at 65 mg/kg/day (Rattus norvegicus [7]): 23%

inhibition [5]: 84%
Structure (SMILES): COc1ccc2c(C(=S)N(C)CC(=O)O)cc(Cc3ccccc3)cc2c1Br
inhibition in vivo at 144 mg/kg/day (Rattus norvegicus [10]): 46%
Inhibition (Rattus norvegicus [11]): 48%
inhibition in vivo at 144 mg/kg/day (Rattus norvegicus [12]): 84%
Inhibition (Rattus norvegicus [13]): 78%

IC50 (Rattus norvegicus [14]): 1400 nM
IC50 [18]: 37 nM
IC50 (Rattus norvegicus [19]): 37 nM
Structure (SMILES): O=C(O)Cc1nn(Cc2ccc(Br)cc2F)c(=O)c2ccccc12 [PONALRESTAT]
Inhibition (Rattus norvegicus [15]): 35%
ED50 (Rattus norvegicus [16]): 4 mg/kg
Inhibition (Rattus norvegicus [13]): 100%
inhibition in vivo at 5 mg/kg/day (Rattus norvegicus [17]): 61%
inhibition in vivo at 5 mg/kg/day (Rattus norvegicus [8]): 63%

inhibition [5]: 20%
Structure (SMILES): COc1c(C)cc2c(C(=O)N(C)CC(=O)O)cccc2c1Br
inhibition in vivo at 19 mg/kg/day (Rattus norvegicus [36]): 63%
inhibition in vivo at 19 mg/kg/day (Rattus norvegicus [37]): 77%
inhibition (Rattus norvegicus [38]): inactive
inhibition (Rattus norvegicus [39]): inactive
